Assay results reported in ChEMBL document CHEMBL5543075, “Phenoxytacrine derivatives: Low-toxicity neuroprotectants exerting affinity to ifenprodil-binding site and cholinesterase inhibition” (Eur J Med Chem, 2024).

Legend:
[1] = biological target: T1, Glutamate NMDA receptor; GRIN1/GRIN2B (Homo sapiens, UniProt Q05586+Q13224); assay: Inhibition of recombinant human GluN1/GluN2B receptor expressed in HEK293 cells assessed as reduction in glutamate induced current at -20 mV holding potential by electrophysiology assay; format: cell-based
[2] = Cytotoxicity against CHO-K1 cells incubated for 24 hrs by MTT assay; format: toxicity, cell-based, Cricetulus griseus; settings: Chinese hamster
[3] = biological target: T1, Glutamate NMDA receptor; GRIN1/GRIN2B; assay: Inhibition of recombinant human GluN1/GluN2B receptor expressed in HEK293 cells assessed as reduction in glutamate induced current at 1 uM at -60 mV holding potential by electrophysiology assay relative to control; format: cell-based

IC50 [1]: ~2 µM
inhibition [3]: 33.1%
SMILES: Nc1c2c(nc3ccc(Oc4ccccc4)cc13)CCCC2
IC50 at 24 h [2]: 31 µM
